This note sets out measurements from patent publication US6319915A, “Benzazepine derivatives as inhibitors of hyperproliferation diseases” (Pfizer Inc., priority 2000, dated 2001).

By IC50 is commonly meant the point on the concentration scale where inhibition reaches its midpoint. Lower therefore signals higher potency.

The target in the assay is T1, VEGF/GAG (glycosaminoglycan) (Homo sapiens, UniProt P15692).
T1 construct: purchased Repligen, Inc
T1 sequence (P15692 1-191 isoform P15692-4): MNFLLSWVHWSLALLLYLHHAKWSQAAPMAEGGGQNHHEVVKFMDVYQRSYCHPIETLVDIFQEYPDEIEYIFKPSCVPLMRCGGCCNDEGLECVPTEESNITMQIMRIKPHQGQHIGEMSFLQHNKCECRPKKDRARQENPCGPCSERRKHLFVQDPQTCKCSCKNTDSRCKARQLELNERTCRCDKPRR
The assay can be described thus: in vitro inhibition of VEGF/GAG (glycosaminoglycan) binding ([125I]heparin-16-mer / VEGF165 filter binding). Particulars: purified VEGF165 20 nM, 60 minutes at room temperature, 0.16% DMSO. As for the experimental part: The in vitro activity of the compounds of formula I in inhibiting VEGF/GAG (glycosaminoglycan) binding may be measured using the assay described in U.S. Pat. No. 5,795,860, the subject matter of which is incorporated herein by reference.
Using mixed cellulose ester 96-well filter plates, 150 μL of Dulbeccos PBS (phosphate buffered saline) containing 10% ovalbumin is added. Compound (5.0 μL) is added at a final concentration of […]. Compounds are dissolved in 8% DMSO (final DMSO concentration is 0.16%) and tested at concentrations of 32, 10, 3.2, 1.0, 0.32 and 0.10 μM. A mixture of [^125 I]heparin-16-mer (4500 cpm per well), purified VEGF165 (20 nM final concentration/well, prepared by Repligen, Inc.) and Dulbeccos PBS with 10% ovalbumin is added to the 96-well plate in a volume of 100 μL. Nonspecific binding is defined using 10 μM heparin-sodium from porcine intestinal mucosa. The assay plate is incubated for 60 minutes at room temperature, filtered using a Millipore filtration apparatus, the plastic bottom plate is removed and the filter plate is allowed to completely dry. The plate bottom is sealed with plastic plate seal and 25 μL of scintillation cocktail is added to each well. The top plate is sealed and is counted for radioactivity on a Microbeta Scintillation Counter. The assay is run in a final volume of 250 μL.
`CC1(C)CCCC(C)(C)N1C(=O)CN1C(=O)C(NC(=O)Nc2cccc(-c3nnn[nH]3)c2)COc2cc(F)ccc21` (centres unmarked) [1-{3-Fluoro-8-oxo-9-[2-oxo-2-(2,2,6,6-tetramethyl-piperidin-1-yl)-ethyl]-6,7,8,9-tetrahydro-5-oxa-9-aza-benzocyclohepten-7-yl}-3-[3-(1H-tetrazol-5-yl)-phenyl]-urea]: the IC50 worked out at 1700 nM.

As to `CC1(C)CN(C(=O)CN2C(=O)C(NC(=O)Nc3cccc(-c4nnn[nH]4)c3)COc3cc(F)ccc32)CC(C)(C)C1` (centres unmarked) [1-{3-Fluoro-8-oxo-9-[2-oxo-2-(3,3,5,5-tetramethyl-piperidin-1-yl)-ethyl]-6,7,8,9-tetrahydro-5-oxa-9-aza-benzocyclohepten-7-yl}-3-[3-(1H-tetrazol-5-yl)-phenyl]-urea], the IC50 was 3700 nM.

On to `CC1(C)CN(C(=O)CN2C(=O)C(NC(=O)Nc3cccc(-c4nnn[nH]4)c3)CSc3ccccc32)CC(C)(C)C1` (centres unmarked) [1-{4-Oxo-5-[2-oxo-2-(3,3,5,5-tetramethyl-piperidin-1-yl)-ethyl]-2,3,4,5-tetrahydro-benzo[b][1,4]thiazepin-3-yl}-3-[3-(1H-tetrazol-5-yl)-phenyl]-urea], for which the IC50 amounted to 6700 nM.

Take `COc1ccccc1C1CC(NC(=O)Nc2cccc(-c3nnn[nH]3)c2)C(=O)N(CC(=O)NC2(C)CCCCC2)C(c2ccccc2)C1` (centres unmarked) [2-(5-(2-Methoxy-phenyl)-2-oxo-7-phenyl-3-{3-[3-(1H-tetrazol-5-yl)-phenyl]-ureido}-azepan-1-yl)-N-(1-methyl-cyclohexyl)-acetamide]: the IC50 stood at 1900 nM.

As to `COc1ccccc1C1CC(NC(=O)Nc2cccc(C(=O)NS(C)(=O)=O)c2)C(=O)N(CC(=O)NC2(C)CCCCC2)C(c2ccccc2)C1` (centres unmarked) [2-[3-[3-(3-Methanesulfonylaminocarbonyl-phenyl)-ureido]-5-(2-methoxy-phenyl)-2-oxo-7-phenyl-azepan-1-yl]-N-(1-methyl-cyclohexyl)-acetamide], the IC50 was found to be 3000 nM.

The compound `Cc1ccccc1C1CC(NC(=O)Nc2ccc3[nH]nnc3c2)C(=O)N(CC(=O)NC(C)(C)C)C(c2ccccc2)C1` (centres unmarked) [2-{3-[3-(1H-Benzotriazol-5-yl)-ureido]-2-oxo-7-phenyl-5-o-tolyl-azepan-1-yl}-N-tert-butyl-acetamide] gave an IC50 of 1600 nM.

As for `Cc1ccccc1C1CC(NC(=O)Nc2cccc(C(=O)NS(=O)(=O)c3ccccc3)c2)C(=O)N(CC(=O)NC(C)(C)C)C(c2ccccc2)C1` (centres unmarked) [2-{3-[3-(3-Benzenesulfonylaminocarbonyl-phenyl)-ureido]-2-oxo-7-phenyl-5-o-tolyl-azepan-1-yl}-N-tert-butyl-acetamide], the IC50 turned out to be 1400 nM.

In the case of `Cc1ccccc1C1CC(NC(=O)Nc2cccc(C(=O)Nc3nnn[nH]3)c2)C(=O)N(CC(=O)NC2(C)CCCCC2)C(c2ccccc2)C1` (centres unmarked) [3-(3-{1-[(1-Methyl-cyclohexylcarbamoyl)-methyl]-2-oxo-7-phenyl-5-o-tolyl-azepan-3-yl}-ureido)-N-(1H-tetrazol-5-yl)-benzamide], the IC50 stood at 2300 nM. Against the preceding compound, the IC50 is about 1.6-fold higher.

Take `COc1ccccc1C1CC(NC(=O)Nc2cccc(C(=O)Nc3nnn[nH]3)c2)C(=O)N(CC(=O)NC2(C)CCCCC2)C(c2ccccc2)C1` (centres unmarked) [3-(3-{5-(2-Methoxy-phenyl)-1-[(1-methyl-cyclohexylcarbamoyl)-methyl]-2-oxo-7-phenyl-azepan-3-yl}-ureido)-N-(1H-tetrazol-5-yl)-benzamide]: the IC50 was 900 nM.

`Cc1ccccc1C1CC(NC(=O)Nc2cccc(C(=O)Nc3nnc(C(F)(F)F)s3)c2)C(=O)N(CC(=O)NC(C)(C)C)C(c2ccccc2)C1` (centres unmarked) [3-{3-[1-(tert-Butylcarbamoyl-methyl)-2-oxo-7-phenyl-5-o-tolyl-azepan-3-yl]-ureido}-N-(5-trifluoromethyl-[1,3,4]thiadiazol-2-yl)-benzamide] had an IC50 of 8600 nM. This IC50 lies about 9.6-fold higher than the previous one.

`Cc1ccccc1C1CC(NC(=O)Nc2cccc(C(=O)O)c2)C(=O)N(CC(=O)NC(C)(C)C)C(c2ccccc2)C1` (centres unmarked) [3-{3-[1-(tert-Butylcarbamoyl-methyl)-2-oxo-7-phenyl-5-o-tolyl-azepan-3-yl]-ureido}-benzoic acid] gave an IC50 of 20000 nM.

Compound `COc1ccccc1C1CC(NC(=O)Nc2cccc(C(=O)Nc3nnn[nH]3)c2)C(=O)N(CC(=O)NC(C)(C)C)C(c2ccccc2)C1` (centres unmarked) [3-{3-[1-(tert-Butylcarbamoyl-methyl)-5-(2-methoxy-phenyl)-2-oxo-7-phenyl-azepan-3-yl]-ureido}-N-(1H-tetrazol-5-yl)-benzamide] came in with an IC50 of 1700 nM.

`COc1ccccc1C1CC(NC(=O)Nc2cccc(C(=O)O)c2)C(=O)N(CC(=O)NC(C)(C)C)C(c2ccccc2)C1` (centres unmarked) [3-{3-[1-(tert-Butylcarbamoyl-methyl)-5-(2-methoxy-phenyl)-2-oxo-7-phenyl-azepan-3-yl]-ureido}-benzoic acid] had an IC50 of 4300 nM.

In turn, `Cc1ccc2c(c1)N(CC(=O)NC(C)(C)C)C(=O)C(NC(=O)Nc1cccc(C(=O)O)c1)CC2c1ccccc1` (centres unmarked) [3-{3-[1-(tert-Butylcarbamoyl-methyl)-8-methyl-2-oxo-5-phenyl-2,3,4,5-tetrahydro-1H-benzo[b]azepin-3-yl]-ureido}-benzoic acid] came in with an IC50 of 9800 nM.

`Cc1ccccc1C1CC(NC(=O)Nc2cccc(-c3nnn[nH]3)c2)C(=O)N(CC(=O)NC2(C)CCCCC2)C(c2ccccc2)C1` (centres unmarked) [N-(1-Methyl-cyclohexyl)-2-(2-oxo-7-phenyl-3-{3-[3-(1H-tetrazol-5-yl)-phenyl]-ureido}-5-o-tolyl-azepan-1-yl)-acetamide] displayed an IC50 of 2000 nM.

The compound `Cc1ccccc1C1CC(NC(=O)Nc2cccc(C(=O)NS(=O)(=O)C(F)(F)F)c2)C(=O)N(CC(=O)NC2(C)CCCCC2)C(c2ccccc2)C1` (centres unmarked) [N-(1-Methyl-cyclohexyl)-2-{2-oxo-7-phenyl-5-o-tolyl-3-[3-(3-trifluoromethanesulfonylaminocarbonyl-phenyl)-ureido]-azepan-1-yl}-acetamide] returned an IC50 of 1700 nM.

`Cc1ccccc1C1CC(NC(=O)Nc2cccc(-c3nnn[nH]3)c2)C(=O)N(CC(=O)NC(C)(C)C)C(c2ccccc2)C1` (centres unmarked) [N-tert-Butyl-2-(2-oxo-7-phenyl-3-{3-[3-(1H-tetrazol-5-yl)-phenyl]-ureido}-5-o-tolyl-azepan-1-yl)-acetamide] yielded an IC50 of 3700 nM.

`COc1ccccc1C1CC(NC(=O)Nc2cccc(-c3nnn[nH]3)c2)C(=O)N(CC(=O)NC(C)(C)C)C(c2ccccc2)C1` (centres unmarked) [N-tert-Butyl-2-(5-(2-methoxy-phenyl)-2-oxo-7-phenyl-3-{3-[3-(1H-tetrazol-5-yl)-phenyl]-ureido}-azepan-1-yl)-acetamide] showed an IC50 of 700 nM.

The compound `Cc1ccc2c(c1)N(CC(=O)NC(C)(C)C)C(=O)C(NC(=O)Nc1cccc(-c3nnn[nH]3)c1)CC2C1CCCCC1` (centres unmarked) [N-tert-Butyl-2-(5-cyclohexyl-8-methyl-2-oxo-3-{3-[3-(1H-tetrazol-5-yl)-phenyl]-ureido}-2,3,4,5-tetrahydro-benzo[b]azepin-1-yl)-acetamide] returned an IC50 of 4300 nM.

The compound `COc1ccccc1C1CC(NC(=O)Nc2cccc(C(=O)NS(C)(=O)=O)c2)C(=O)N(CC(=O)NC(C)(C)C)C(c2ccccc2)C1` (centres unmarked) [N-tert-Butyl-2-[3-[3-(3-methanesulfonylaminocarbonyl-phenyl)-ureido]-5-(2-methoxy-phenyl)-2-oxo-7-phenyl-azepan-1-yl]-acetamide] registered an IC50 of 5800 nM.

Turning to `Cc1ccccc1C1CC(NC(=O)Nc2cccc(C(=O)NS(=O)(=O)Cc3ccccc3)c2)C(=O)N(CC(=O)NC(C)(C)C)C(c2ccccc2)C1` (centres unmarked) [N-tert-Butyl-2-{2-oxo-7-phenyl-3-[3-(3-phenylmethanesulfonylaminocarbonyl-phenyl)-ureido]-5-o-tolyl-azepan-1-yl}-acetamide], the IC50 was 2400 nM.

Consider `Cc1ccc2c(c1)N(CC(=O)NC(C)(C)C)C(=O)C(NC(=O)Nc1cccc(C(=O)NS(C)(=O)=O)c1)CC2c1ccccc1` (centres unmarked) [N-tert-Butyl-2-{3-[3-(3-methanesulfonylaminocarbonyl-phenyl)-ureido]-8-methyl-2-oxo-5-phenyl-2,3,4,5-tetrahydro-benzo[b]azepin-1-yl}-acetamide], for which the IC50 was 11000 nM. This IC50 is about 4.6-fold higher than that of the compound before.

The compound `Cc1cccc(NC(=O)NC2CC(c3ccccc3C)CC(c3ccccc3)N(CC(=O)O)C2=O)c1` (centres unmarked) [[2-Oxo-7-phenyl-5-o-tolyl-3-(3-m-tolyl-ureido)-azepan-1-yl]-acetic acid] registered an IC50 of 2400 nM. Compared with the last compound, the IC50 is about 4.6-fold lower.
